Results on 21 compounds are retold here after US20240228504A1, “SUBSTITUTED TRICYCLIC AMIDES, ANALOGUES THEREOF, AND METHODS USING SAME” (Arbutus Biopharma Corporation, priority 2020, published 2024).

The subject of this test is HBV rcDNA in HepDE19 cells. Kind of test: HepDE19 assay with bDNA quantitation of HBV rcDNA. It is filed as cell-based, hepatitis B virus. The following applies: Hepatitis B virus, HepDE19, HepDE19 assay, inhibition of rcDNA formation, bDNA quantitation; read-out: DE-19bDNA EC50.
On to `CN(C(=O)c1cc2cc(F)c(C(F)F)cc2[nH]1)[C@@H]1CCCc2[nH]c(=O)c3cc(F)ccc3c21` [Compound 479, (R)-6-(difluoromethyl)-5-fluoro-N-(8-fluoro-6-oxo-1,2,3,4,5,6-hexahydrophenanthridin-1-yl)-N-methyl-1H-indole-2-carboxamide], for which the EC50 turned out to be 0.04 µM.

In the case of `CN(C(=O)c1cc2cc(F)ccc2[nH]1)[C@@H]1CCCc2[nH]c(=O)c3cc(F)c(F)cc3c21` [Compound 480, (R)-N-(8,9-difluoro-6-oxo-1,2,3,4,5,6-hexahydrophenanthridin-1-yl)-5-fluoro-N-methyl-1H-indole-2-carboxamide], the EC50 came to 0.01 µM.

Consider `CN(C(=O)c1cc2cc(F)c(F)cc2[nH]1)[C@@H]1CCCc2[nH]c(=O)c3cc(F)c(F)cc3c21` [Compound 481, (R)-N-(8,9-difluoro-6-oxo-1,2,3,4,5,6-hexahydrophenanthridin-1-yl)-5,6-difluoro-N-methyl-1H-indole-2-carboxamide], for which the EC50 is 0.01 µM.

As for `CN(C(=O)c1cc2cc(F)c(C(F)F)cc2[nH]1)[C@@H]1CCCc2[nH]c(=O)c3cc(F)c(F)cc3c21` [Compound 482, (R)-N-(8,9-difluoro-6-oxo-1,2,3,4,5,6-hexahydrophenanthridin-1-yl)-6-(difluoromethyl)-5-fluoro-N-methyl-1H-indole-2-carboxamide], the EC50 is 0.01 µM.

In the case of `CN(C(=O)c1cc2c(C(F)F)cc(F)cc2[nH]1)[C@@H]1CCCc2[nH]c(=O)c3cc(F)c(F)cc3c21` [Compound 483, (R)-N-(8,9-difluoro-6-oxo-1,2,3,4,5,6-hexahydrophenanthridin-1-yl)-4-(difluoromethyl)-6-fluoro-N-methyl-1H-indole-2-carboxamide], the EC50 was determined as 0.01 µM.

Take `Cc1cccc2[nH]c(C(=O)N(C)[C@@H]3CCCc4[nH]c(=O)c5cc(F)c(F)cc5c43)cc12` [Compound 484, (R)-N-(8,9-difluoro-6-oxo-1,2,3,4,5,6-hexahydrophenanthridin-1-yl)-N,4-dimethyl-1H-indole-2-carboxamide]: the EC50 stood at 0.01 µM.

As to `Cc1cc(F)cc2[nH]c(C(=O)N(C)[C@@H]3CCCc4[nH]c(=O)c5cc(F)c(F)cc5c43)cc12` [Compound 485, (R)-N-(8,9-difluoro-6-oxo-1,2,3,4,5,6-hexahydrophenanthridin-1-yl)-6-fluoro-N,4-dimethyl-1H-indole-2-carboxamide], the EC50 came to 0.01 µM.

For `CN(Cc1ccc(Br)c(F)c1)[C@@H]1COCc2[nH]c(=O)c3cc(F)c(F)cc3c21` [Compound 486, (S)-1-((4-bromo-3-fluorobenzyl)(methyl)amino)-8,9-difluoro-1,5-dihydro-2H-pyrano[3,4-c]isoquinolin-6(4H)-one], the EC50 was found to be 8.28 µM.

As for `CN(C(=O)c1cc2sc(Cl)cc2[nH]1)[C@@H]1COC(O)c2[nH]c(=O)c3cc(F)c(F)cc3c21` (stereo partly drawn) [Compound 487, 2-Chloro-N-((1S)-8,9-difluoro-4-hydroxy-6-oxo-1,4,5,6-tetrahydro-2H-pyrano[3,4-c]isoquinolin-1-yl)-N-methyl-4H-thieno[3,2-b]pyrrole-5-carboxamide], the EC50 was determined as 0.02 µM.

With `CN(C(=O)c1cc2cc(F)c(C(F)F)cc2[nH]1)[C@@H]1COC(O)c2[nH]c(=O)c3cc(F)c(F)cc3c21` (stereo partly drawn) [Compound 488, N-((1S)-8,9-Difluoro-4-hydroxy-6-oxo-1,4,5,6-tetrahydro-2H-pyrano[3,4-c]isoquinolin-1-yl)-6-(difluoromethyl)-5-fluoro-N-methyl-1H-indole-2-carboxamide], the EC50 stood at 0.01 µM.

`CN(C(=O)c1cc2cc(F)ccc2[nH]1)[C@@H]1CCCc2[nH]c(=O)c3cc(F)ccc3c21` [Compound 489, (R)-5-Fluoro-N-(8-fluoro-6-oxo-1,2,3,4,5,6-hexahydrophenanthridin-1-yl)-N-methyl-11H-indole-2-carboxamide]: the EC50 stood at 0.01 µM.

As for `CN(C(=O)c1cc2cc(F)c(F)cc2[nH]1)[C@@H]1CCCc2[nH]c(=O)c3cc(F)ccc3c21` [Compound 490, (R)-5,6-difluoro-N-(8-fluoro-6-oxo-1,2,3,4,5,6-hexahydrophenanthridin-1-yl)-N-methyl-1H-indole-2-carboxamide], the EC50 was 0.02 µM.

With `Cc1cccc2[nH]c(C(=O)N(C)[C@@H]3CCCc4[nH]c(=O)c5cc(F)ccc5c43)cc12` [Compound 491, (R)-N-(8-fluoro-6-oxo-1,2,3,4,5,6-hexahydrophenanthridin-1-y1)-N,4-dimethyl-1H-indole-2-carboxamide], the EC50 was 0.02 µM.

For the compound `Cc1cc(F)cc2[nH]c(C(=O)N(C)[C@@H]3CCCc4[nH]c(=O)c5cc(F)ccc5c43)cc12` [Compound 492, (R)-6-fluoro-N-(8-fluoro-6-oxo-1,2,3,4,5,6-hexahydrophenanthridin-1-y1)-N,4-dimethyl-1H-indole-2-carboxamide], the EC50 was 0.03 µM.

Turning to `CN(C(=O)c1cc2c(C(F)F)cc(F)cc2[nH]1)[C@@H]1CCCc2[nH]c(=O)c3cc(F)ccc3c21` [Compound 493, (R)-4-(difluoromethyl)-6-fluoro-N-(8-fluoro-6-oxo-1,2,3,4,5,6-hexahydrophenanthridin-1-y1)-N-methyl-1H-indole-2-carboxamide], the EC50 was found to be 0.01 µM.

Turning to `CN(Cc1cc2cc(F)c(F)cc2[nH]1)[C@@H]1COCc2[nH]c(=O)c3cc(F)c(F)cc3c21` [Compound 494, (S)-1-(((5,6-difluoro-1H-indol-2-yl)methyl)(methyl)amino)-8,9-difluoro-1,5-dihydro-2H-pyrano[3,4-c]isoquinolin-6(4H)-one], the EC50 stood at 1.5 µM.

As to `CN(C(=O)c1cc2cc(F)c(F)cc2[nH]1)[C@@H]1CCC(O)c2[nH]c(=O)c3cc(F)c(F)cc3c21` (stereo partly drawn) [Compound 503, N-((1R)-8,9-difluoro-4-hydroxy-6-oxo-1,2,3,4,5,6-hexahydrophenanthridin-1-yl)-5,6-difluoro-N-methyl-1H-indole-2-carboxamide], the EC50 came out at 0.02 µM.

Take `CN(C(=O)C(F)(F)c1ccccc1)[C@@H]1COCc2[nH]c(=O)c3cc(F)c(F)cc3c21` [Compound 512, (S)-N-(8,9-Difluoro-6-oxo-1,4,5,6-tetrahydro-2H-pyrano[3,4-c]isoquinolin-1-yl)-2,2-difluoro-N-methyl-2-phenylacetamide]: the EC50 stood at 25 µM.

On to `[2H][C@@]1(N(C(=O)c2cc3cc(F)c(F)cc3[nH]2)[13C]([2H])([2H])[2H])COCc2[nH]c(=O)c3cc(F)c(F)cc3c21` [Compound 514, (S)-N-(8,9-Difluoro-6-oxo-1,4,5,6-tetrahydro-2H-pyrano[3,4-c]isoquinolin-1-yl-1-d)-5,6-difluoro-N-(methyl-^13C-d3)-1H-indole-2-carboxamide], for which the EC50 was 0.008 µM.

Turning to `[2H][C@@]1(N(C(=O)c2cc3cc(F)c(C(F)F)cc3[nH]2)[13C]([2H])([2H])[2H])COCc2[nH]c(=O)c3cc(F)c(F)cc3c21` [Compound 515, (S)-N-(8,9-Difluoro-6-oxo-1,4,5,6-tetrahydro-2H-pyrano[3,4-c]isoquinolin-1-yl-1-d)-6-(difluoromethyl)-5-fluoro-N-(methyl-^13C-d3)-1H-indole-2-carboxamide], the EC50 is 0.01 µM.

Consider `[2H][C@@]1(N(C(=O)c2cc3sc(Cl)cc3[nH]2)[13C]([2H])([2H])[2H])COCc2[nH]c(=O)c3cc(F)c(F)cc3c21` [Compound 516, (S)-2-Chloro-N-(8,9-difluoro-6-oxo-1,4,5,6-tetrahydro-2H-pyrano[3,4-c]isoquinolin-1-yl-1-d)-N-(methyl-^13C-d3)-4H-thieno[3,2-b]pyrrole-5-carboxamide], for which the EC50 was found to be 0.01 µM.

A word on the EC50: it is the concentration giving half of the maximal effect.
